Measurements reported in paper PMC5562879, “Reduction of the off-pathway iron-sulphur cluster N1a of Escherichia coli respiratory complex I restrains NAD^+ dissociation” (Scientific Reports, 2017).

Columns and labels:
[1] = molecular target: T1, E. coli respiratory complex I (NADH:ubiquinone oxidoreductase) (Escherichia coli, UniProt P31979); assay: NADH:ferricyanide oxidoreductase assay, NADH oxidation at […] nm, Lineweaver-Burk secondary plots; format: biochemical; conditions: reaction started by enzyme (oxidised enzyme); ferricyanide 0.25-2 mM; pH 6.0, 30 °C; ping-pong-pong with double substrate inhibition; read-out: Km, app. ^NADH
T1 construct: gene nuoF; whole complex from the nuo operon, His-tagged NuoF, overproduced in E. coli, DDM-solubilised, purified by anion exchange, Ni-IDA and Source Q; with NADH-quinone oxidoreductase subunit E; NADH-quinone oxidoreductase subunit G; NADH-quinone oxidoreductase subunit C/D; NADH-quinone oxidoreductase subunit B; NADH-quinone oxidoreductase subunit I; NADH-quinone oxidoreductase subunit A; NADH-quinone oxidoreductase subunit H; NADH-quinone oxidoreductase subunit J; NADH-quinone oxidoreductase subunit K; NADH-quinone oxidoreductase subunit L; NADH-quinone oxidoreductase subunit M; NADH-quinone oxidoreductase subunit N
T1 sequence (P0AFD1 whole entry V96P/N142M, form open, one chain of several): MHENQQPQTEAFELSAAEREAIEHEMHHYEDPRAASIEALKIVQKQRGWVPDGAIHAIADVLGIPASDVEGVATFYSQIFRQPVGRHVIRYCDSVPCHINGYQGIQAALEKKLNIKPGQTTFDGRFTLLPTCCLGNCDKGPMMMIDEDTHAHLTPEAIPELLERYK

[2] = molecular target: T2, E. coli respiratory complex I (NADH:ubiquinone oxidoreductase) (Escherichia coli, UniProt P31979); assay: as above; format: biochemical; conditions: reaction started by enzyme (oxidised enzyme), ferricyanide 0.25-2 mM, pH 6.0, 30 °C, ping-pong-pong with double substrate inhibition, competitive with ferricyanide at the reduced
T2 construct: gene nuoF; whole complex from the nuo operon, His-tagged NuoF, overproduced in E. coli, DDM-solubilised, purified by anion exchange, Ni-IDA and Source Q; with NADH-quinone oxidoreductase subunit E; NADH-quinone oxidoreductase subunit G; NADH-quinone oxidoreductase subunit C/D; NADH-quinone oxidoreductase subunit B; NADH-quinone oxidoreductase subunit I; NADH-quinone oxidoreductase subunit A; NADH-quinone oxidoreductase subunit H; NADH-quinone oxidoreductase subunit J; NADH-quinone oxidoreductase subunit K; NADH-quinone oxidoreductase subunit L; NADH-quinone oxidoreductase subunit M; NADH-quinone oxidoreductase subunit N
T2 sequence (P31979 1-445): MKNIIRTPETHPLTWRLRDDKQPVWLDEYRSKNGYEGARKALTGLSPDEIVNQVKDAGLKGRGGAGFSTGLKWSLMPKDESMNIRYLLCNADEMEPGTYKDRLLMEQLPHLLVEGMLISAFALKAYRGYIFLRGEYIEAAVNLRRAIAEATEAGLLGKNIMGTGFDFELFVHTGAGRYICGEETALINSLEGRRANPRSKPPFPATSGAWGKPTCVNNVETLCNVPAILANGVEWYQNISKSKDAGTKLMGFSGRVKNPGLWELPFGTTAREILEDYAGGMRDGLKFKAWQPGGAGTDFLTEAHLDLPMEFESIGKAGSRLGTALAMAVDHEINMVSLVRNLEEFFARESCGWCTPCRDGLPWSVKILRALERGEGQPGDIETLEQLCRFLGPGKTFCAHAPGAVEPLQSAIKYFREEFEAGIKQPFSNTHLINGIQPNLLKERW
T2 sequence (P0AFD1 1-166 partner): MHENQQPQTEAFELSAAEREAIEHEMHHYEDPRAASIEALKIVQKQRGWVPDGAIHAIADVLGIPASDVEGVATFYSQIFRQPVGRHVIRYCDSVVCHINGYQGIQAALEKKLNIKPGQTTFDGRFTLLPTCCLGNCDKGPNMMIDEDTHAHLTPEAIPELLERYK
T2 sequence (P33602 2-908 partner): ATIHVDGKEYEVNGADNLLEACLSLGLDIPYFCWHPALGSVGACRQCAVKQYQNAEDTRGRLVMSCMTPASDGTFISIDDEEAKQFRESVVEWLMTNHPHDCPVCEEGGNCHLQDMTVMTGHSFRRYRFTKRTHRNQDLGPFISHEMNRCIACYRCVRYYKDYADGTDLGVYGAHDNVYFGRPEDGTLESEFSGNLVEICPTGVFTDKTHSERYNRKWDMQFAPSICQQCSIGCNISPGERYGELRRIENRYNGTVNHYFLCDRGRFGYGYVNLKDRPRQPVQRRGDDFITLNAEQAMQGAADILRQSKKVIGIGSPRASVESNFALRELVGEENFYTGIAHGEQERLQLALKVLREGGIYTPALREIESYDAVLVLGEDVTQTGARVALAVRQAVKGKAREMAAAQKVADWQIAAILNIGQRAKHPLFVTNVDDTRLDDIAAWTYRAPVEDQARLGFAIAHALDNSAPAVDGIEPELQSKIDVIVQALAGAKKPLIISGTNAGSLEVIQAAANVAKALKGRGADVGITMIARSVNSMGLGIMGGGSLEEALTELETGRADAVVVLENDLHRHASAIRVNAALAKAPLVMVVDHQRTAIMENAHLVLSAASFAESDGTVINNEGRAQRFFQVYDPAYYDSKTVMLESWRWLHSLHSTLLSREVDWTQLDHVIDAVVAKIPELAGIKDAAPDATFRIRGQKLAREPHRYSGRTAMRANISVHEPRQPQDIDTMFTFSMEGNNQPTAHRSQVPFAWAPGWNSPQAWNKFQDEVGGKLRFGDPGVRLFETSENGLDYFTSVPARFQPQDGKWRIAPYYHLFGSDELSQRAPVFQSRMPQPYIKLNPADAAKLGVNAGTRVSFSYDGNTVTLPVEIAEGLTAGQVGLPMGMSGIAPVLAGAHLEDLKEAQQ

[3] = molecular target: T1, E. coli respiratory complex I (NADH:ubiquinone oxidoreductase); assay: as above; format: biochemical; conditions: reaction started by enzyme (oxidised enzyme), ferricyanide 0.25-2 mM, pH 6.0, 30 °C, ping-pong-pong with double substrate inhibition, competitive with ferricyanide at the reduced; remark: listed apart in the source
[4] = molecular target: T2, E. coli respiratory complex I (NADH:ubiquinone oxidoreductase); assay: as above; format: biochemical; conditions: reaction started by enzyme (oxidised enzyme); pH 6.0, 30 °C; off-rate derived from steady-state kinetics, not a Kd
[5] = molecular target: T1, E. coli respiratory complex I (NADH:ubiquinone oxidoreductase); assay: as above; format: biochemical; conditions: reaction started by enzyme (oxidised enzyme); pH 6.0, 30 °C; off-rate derived from steady-state kinetics, not a Kd; remark: listed apart in the source
[6] = molecular target: T3, T. thermophilus complex I (Thermus thermophilus, UniProt Q56222); assay: d-NADH:ferricyanide oxidoreductase activity of cytoplasmic membranes, […] nm; format: biochemical; conditions: ferricyanide as acceptor; 50 mM Bis-Tris, pH 7.3 (Figure 1 legend), 60 °C
T3 construct: gene nqo1; native complex in isolated T. thermophilus cytoplasmic membranes; with NADH-quinone oxidoreductase subunit 2; NADH-quinone oxidoreductase subunit 3; NADH-quinone oxidoreductase subunit 4; NADH-quinone oxidoreductase subunit 5; NADH-quinone oxidoreductase subunit 6; NADH-quinone oxidoreductase subunit 7; NADH-quinone oxidoreductase subunit 8; NADH-quinone oxidoreductase subunit 9; NADH-quinone oxidoreductase subunit 10; NADH-quinone oxidoreductase subunit 11; NADH-quinone oxidoreductase subunit 12; NADH-quinone oxidoreductase subunit 13; NADH-quinone oxidoreductase subunit 14; NADH-quinone oxidoreductase subunit 15; NADH-quinone oxidoreductase subunit 16
T3 sequence (Q56222 1-438): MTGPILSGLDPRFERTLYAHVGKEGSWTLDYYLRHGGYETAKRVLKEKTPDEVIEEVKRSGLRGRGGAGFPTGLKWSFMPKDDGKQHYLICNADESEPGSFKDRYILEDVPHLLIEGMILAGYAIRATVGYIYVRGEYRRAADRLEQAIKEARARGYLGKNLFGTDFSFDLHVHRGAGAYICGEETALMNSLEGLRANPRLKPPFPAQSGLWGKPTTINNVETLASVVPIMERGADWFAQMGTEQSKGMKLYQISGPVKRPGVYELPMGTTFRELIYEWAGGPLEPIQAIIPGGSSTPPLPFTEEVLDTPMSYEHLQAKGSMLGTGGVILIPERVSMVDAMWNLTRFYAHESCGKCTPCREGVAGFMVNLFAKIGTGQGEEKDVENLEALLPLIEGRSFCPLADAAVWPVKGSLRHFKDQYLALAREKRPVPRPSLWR
T3 sequence (Q56221 2-181 partner): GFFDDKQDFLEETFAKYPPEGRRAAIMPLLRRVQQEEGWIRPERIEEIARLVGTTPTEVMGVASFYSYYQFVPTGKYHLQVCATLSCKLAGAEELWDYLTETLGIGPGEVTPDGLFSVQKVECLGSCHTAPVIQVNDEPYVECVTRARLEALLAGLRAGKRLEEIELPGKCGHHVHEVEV
T3 sequence (Q56223 1-783 partner): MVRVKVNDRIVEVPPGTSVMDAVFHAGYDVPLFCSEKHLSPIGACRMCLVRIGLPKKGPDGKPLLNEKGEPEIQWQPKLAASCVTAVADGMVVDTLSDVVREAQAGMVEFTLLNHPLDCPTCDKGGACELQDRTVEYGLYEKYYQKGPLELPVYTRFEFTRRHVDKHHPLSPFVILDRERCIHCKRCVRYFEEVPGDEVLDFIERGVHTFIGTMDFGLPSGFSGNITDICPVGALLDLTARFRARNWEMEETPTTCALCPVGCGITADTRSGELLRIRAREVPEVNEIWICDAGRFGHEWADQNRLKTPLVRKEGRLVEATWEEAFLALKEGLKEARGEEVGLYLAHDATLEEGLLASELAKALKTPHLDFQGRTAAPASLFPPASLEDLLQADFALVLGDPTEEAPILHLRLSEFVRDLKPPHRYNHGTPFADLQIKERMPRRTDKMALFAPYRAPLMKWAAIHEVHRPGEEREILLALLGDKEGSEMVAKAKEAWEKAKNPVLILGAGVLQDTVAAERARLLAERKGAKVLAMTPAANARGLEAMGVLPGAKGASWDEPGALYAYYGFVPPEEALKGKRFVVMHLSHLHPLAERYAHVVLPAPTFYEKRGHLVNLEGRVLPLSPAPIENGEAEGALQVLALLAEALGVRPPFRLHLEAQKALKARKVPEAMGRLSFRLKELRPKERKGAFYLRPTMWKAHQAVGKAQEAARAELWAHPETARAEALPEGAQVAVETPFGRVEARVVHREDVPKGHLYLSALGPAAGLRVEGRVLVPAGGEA

purified protein = substrate: NC(=O)C1=CN([C@@H]2O[C@H](COP(=O)(O)OP(=O)(O)OC[C@H]3O[C@@H](n4cnc5c(N)ncnc54)[C@H](O)[C@@H]3O)[C@@H](O)[C@H]2O)C=CC1; assay: purified protein; format: biochemical, Escherichia coli; conditions: reaction started by enzyme (oxidised enzyme), ferricyanide 0.25-2 mM, pH 6.0, 30 °C, ping-pong-pong with double substrate inhibition

NC(=O)C1=CN([C@@H]2O[C@H](COP(=O)(O)OP(=O)(O)OC[C@H]3O[C@@H](n4cnc5c(N)ncnc54)[C@H](O)[C@@H]3O)[C@@H](O)[C@H]2O)C=CC1 [NADH]
Km [1]: 11 µM
Ki, app. ^NADH [2]: 22 µM
Ki, app. ^NADH [3]: 22 µM

NC(=O)c1ccc[n+]([C@@H]2O[C@H](COP(=O)(O)OP(=O)(O)OC[C@H]3O[C@@H](n4cnc5c(N)ncnc54)[C@H](O)[C@@H]3O)[C@@H](O)[C@H]2O)c1 [NAD^+]
Rate constant: NAD^+ dissociation (s^-1) [4]: 2.3 10^3
Rate constant: NAD^+ dissociation (s^-1) [5]: 2.4 10^3

NC(=O)C1=CN([C@@H]2O[C@H](COP(=O)(O)OP(=O)(O)OC[C@H]3O[C@@H](n4cnc5c(=O)[nH]cnc54)[C@H](O)[C@@H]3O)[C@@H](O)[C@H]2O)C=CC1 [d-NADH]
d-NADH:ferricyanide oxidoreductase activity of cytoplasmic membranes, 340 nm [6]: T. thermophilus membranes exhibited similar fast reaction rates

B1: E. coli respiratory complex I (NADH:ubiquinone oxidoreductase) (Escherichia coli K-12) (protein)
chain: T2 sequence (P31979 1-445)
notes: whole complex from the nuo operon, His-tagged NuoF, overproduced in E. coli, DDM-solubilised, purified by anion exchange, Ni-IDA and Source Q; with NADH-quinone oxidoreductase subunit E; NADH-quinone oxidoreductase subunit G; NADH-quinone oxidoreductase subunit C/D; NADH-quinone oxidoreductase subunit B; NADH-quinone oxidoreductase subunit I; NADH-quinone oxidoreductase subunit A; NADH-quinone …
Km (purified protein): 11 µM
